In US8178522B2, “Thiazoles” (Hoffmann-La Roche Inc., priority 2009, dated 2012) one finds Ki data, which are given here for six compounds.

pKi: −log10 of the molar value.

The test has as its target T1, GABA A α5 (α5β3γ2) (Homo sapiens, UniProt P18507+P31644).
T1 construct: expressed in transfected cells; host or cells: HEK293, transiently transfected; membrane preparation
The experiment in a line: [3H]flumazenil competition binding, human GABA A α5 receptor. Particulars: human receptor α5β3γ2 transiently transfected in HEK293 cells; competition for [3H]flumazenil 0.5 nM; 1 hour at 4° C.; means of two determinations; read-out: hKi GABA A α5. In short, it runs like this:
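Competition with [3H]flumazenil at membranes from HEK293 cells transiently expressing human α5β3γ2, in Krebs-tris buffer pH 7.5. Equilibrium 1 hour at 4° C, filtration with ice-cold 50 mM Tris wash, scintillation counting. Ki values are means of two determinations.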

Take `Cc1onc(-c2ccccc2)c1COc1ncc(C(=O)NCCO)s1` [Example 130, 2-(5-Methyl-3-phenyl-isoxazol-4-ylmethoxy)-thiazole-5-carboxylic acid (2-hydroxy-ethyl)-amide]: the pKi was 8.27.

In the case of `Cc1onc(-c2ccccn2)c1CCc1ncc(C(=O)NCCO)s1` [Example 29, 2-[2-(5-Methyl-3-pyridin-2-yl-isoxazol-4-yl)-ethyl]-thiazole-5-carboxylic acid (2-hydroxy-ethyl)-amide], the pKi was 7.49.

For the compound `CCCCc1noc(C)c1CCc1nc(C)c(C(=O)NC2CCOCC2)s1` [Example 51, 2-[2-(3-Butyl-5-methyl-isoxazol-4-yl)-ethyl]-4-methyl-thiazole-5-carboxylic acid (tetra-hydro-pyran-4-yl)-amide], the pKi is 7.95.

Regarding `Cc1nc(CCc2conc2-c2ccccn2)sc1C(=O)NCC(F)(F)F` [Example 20, 4-Methyl-2-[2-(3-pyridin-2-yl-isoxazol-4-yl)-ethyl]-thiazole-5-carboxylic acid (2,2,2-trifluoro-ethyl)-amide], the pKi is 7.04.

On to `Cc1nc(/C=C/c2c(-c3ccc(F)cn3)noc2C)sc1C(=O)NC(C)C` [Example 71, 2-{(E)-2-[3-(5-Fluoro-pyridin-2-yl)-5-methyl-isoxazol-4-yl]-vinyl}-4-methyl-thiazole-5-carboxylic acid isopropylamide], for which the pKi was 8.82.

As to `Cc1onc(-c2ccc(F)cn2)c1CCc1ncc(C(=O)NCC(F)(F)F)s1` [Example 44, 2-{2-[3-(5-Fluoro-pyridin-2-yl)-5-methyl-isoxazol-4-yl]-ethyl}-thiazole-5-carboxylic acid (2,2,2-trifluoro-ethyl)-amide], the pKi was 7.80.
